The text below walks through data of patent publication EP0242417B1, “Morphinane-skeletoned hydrazone derivatives, process for preparing them, pharmaceutical composition and use” (ALKALOIDA VEGYéSZETI GYáR, priority 1986, dated 1987).

Data set [1] is described as follows: Sensitivity to light of the isolated product.
Another data set deals with opiate receptors. Put plainly: Competition for tritiated Naloxon specific binding in rat brain membrane preparates. The settings on record: tritiated Naloxon bond (1 nanomole) taken as 100 %. The protocol: The effect of the 10⁻⁷ and 10⁻⁵ M concentration of the compounds was examined to tritiated Naloxon bond in rat brain membrane preparates. […]
If the inhibition is high, i.e. the value of the specific bond of the labelled Naloxon is low, the compounds bind to the opiate receptors with high affinity.
A comparative data the tritiated Naloxon bond (concentration: 1 nanomole) was taken as 100 % (without excipients).
The membrane preparate was prepared according to the following article: G.W. Pasternak, H.A. Wilson, S.H. Snyder: Molecular Pharmacol. 11 340-51 (1975).
The specific radioactivity of the labelled Naloxon was 72.4 Ci/mmole [G. Töth, M. Kramer, F. Sirokmán, A. Borsodi, A. Rónai: J. Label. Comp. Radiopharm. 19 1021 (1976)].

A short description of data set [2]: Hot plate test (analgetic activity). Format: in vivo. Conditions: sc.
The nature of data set [3]: Tail Flick test (analgetic activity). The class given is in vivo. The settings on record: sc. Background: Hot-plate and tail-flick tests time the reaction to a heat stimulus.
For data set [4] the following is noted: compared with naloxone; cited from earlier work.
[5] abbreviates: compound concentration 10⁻⁵ mol.
The mark [6] stands for this setting: compound concentration 10⁻⁷ mol.

As to `COc1ccc2c3c1O[C@H]1C(=NNc4ccccc4)C=C[C@@]4(O)[C@@H](C2)N(C)CC[C@]314` [14-OH-codeinone phenylhydrazone], in data set [1], the sensitivity to light entry is “sensitive to light”.

With `COc1ccc2c3c1O[C@H]1C(=NNc4ccccc4)CC[C@H]4[C@@H](C2)N(C)CC[C@]314` [Dihydrocodeinone phenylhydrazone], the “residual tritiated specific bonds of Naloxon” value in the data set on opiate receptors (setting [5]) is reported as 5±1%; with opiate receptors (setting [6]), 75±9%. In addition, in data set [2], the “Hot plate test ED₅₀” value was 2.4 mg/kg.sc. For the same compound, the “Tail Flick ED₅₀” value in data set [3] came to 2.3 mg/kg.sc.

For `COc1ccc2c3c1O[C@H]1C(=NNC(N)=O)CC[C@H]4[C@@H](C2)N(C)CC[C@]314` [Dihydrocodeinone semicarbazone], the “residual tritiated specific bonds of Naloxon” value was determined as 9±7% with opiate receptors (setting [5]) and 43±4% in the data set with opiate receptors (setting [6]). Moreover, the “Hot plate test ED₅₀” value in data set [2] was determined as 0.38 mg/kg.sc. Also, in data set [3], the “Tail Flick ED₅₀” value is given as 0.35 mg/kg.sc.

For `COc1ccc2c3c1O[C@H]1C(=NNC(N)=S)CC[C@H]4[C@@H](C2)N(C)CC[C@]314` [Dihydrocodeinone thiosemicarbazone], the “Hot plate test ED₅₀” value in data set [2] came to 1.7 mg/kg.sc. The “Tail Flick ED₅₀” value in data set [3] is reported as 0.6 mg/kg.sc.

For the compound `CN1CC[C@]23c4c5ccc(O)c4O[C@H]2C(=NNc2ccc([N+](=O)[O-])cc2[N+](=O)[O-])CC[C@H]3[C@H]1C5` [Dihydromorphinone dinitrophenylhydrazone, Dihydromorphinone-2,4-dinitrophenyl hydrazone], the “residual tritiated specific bonds of Naloxon” value in the data set on opiate receptors (setting [5]) was determined as 0.5±0.7%; in the data set with opiate receptors (setting [6]) it was 17±2%. The “Hot plate test ED₅₀” value in data set [2] is reported as 0.27 mg/kg.sc. Also, in data set [3], the “Tail Flick ED₅₀” value came out at 0.18 mg/kg.sc.

Turning to `CN1CC[C@]23c4c5ccc(O)c4O[C@H]2C(=NNc2ccccc2)CC[C@H]3[C@H]1C5` [Dihydromorphinone phenylhydrazone], the “residual tritiated specific bonds of Naloxon” value with opiate receptors (setting [5]) is 10±14%; in the data set on opiate receptors (setting [6]), 4±5%.

Take `CN1CC[C@]23c4c5ccc(O)c4O[C@H]2C(=NNC(N)=O)CC[C@H]3[C@H]1C5` [Dihydromorphinone semicarbazone]: the “residual tritiated specific bonds of Naloxon” value in the data set on opiate receptors (setting [5]) is 4±6%; in the data set with opiate receptors (setting [6]), 69±13%. For the same compound, the “Hot plate test ED₅₀” value in data set [2] was determined as 0.085 mg/kg.sc. In addition, the “Tail Flick ED₅₀” value in data set [3] was determined as 0.13 mg/kg.sc.

`CN1CC[C@]23c4c5ccc(O)c4O[C@H]2C(=NNC(N)=S)CC[C@H]3[C@H]1C5` [Dihydromorphinone thiosemicarbazone]: the “residual tritiated specific bonds of Naloxon” value with opiate receptors (setting [5]) came to 19±4%; in the data set with opiate receptors (setting [6]) it was 16±5%.

`CN1CC[C@]23c4c5ccc(O)c4O[C@H]2[C@@H](O)C=C[C@H]3[C@H]1C5` [Morphine, reference compound]: the “Hot plate test ED₅₀” value in data set [2] stood at 3.6 mg/kg.sc. The “Tail Flick ED₅₀” value in data set [3] amounted to 5.0 mg/kg.sc.

For the compound `COc1ccc2c3c1O[C@H]1C(=NN)C=C[C@@]4(O)[C@@H](C2)N(C)CC[C@]314` [Oxycodeinone hydrazone, 14-OH-codeinone hydrazone], the “residual tritiated specific bonds of Naloxon” value was determined as 13±7% with opiate receptors (setting [5]) and 92±25% in the data set on opiate receptors (setting [6]).

`COc1ccc2c3c1O[C@H]1C(=NNc4ccccc4)CC[C@@]4(O)[C@@H](C2)N(C)CC[C@]314` [Oxycodone phenylhydrazone, 14-OH-dihydrocodeinone phenylhydrazone]: the “Hot plate test ED₅₀” value in data set [2] is reported as 0.8 mg/kg.sc. Moreover, the “Tail Flick ED₅₀” value in data set [3] is 1.2 mg/kg.sc.

In the case of `COc1ccc2c3c1O[C@H]1C(=NNC(N)=O)CC[C@@]4(O)[C@@H](C2)N(C)CC[C@]314` [Oxycodone semicarbazone, 14-OH-dihydrocodeinonesemicarbazone], in data set [2], the “Hot plate test ED₅₀” value stood at 0.58 mg/kg.sc. Also, the “Tail Flick ED₅₀” value in data set [3] is 0.45 mg/kg.sc.

Regarding `CN1CC[C@]23c4c5ccc(O)c4O[C@H]2C(=NNc2ccc([N+](=O)[O-])cc2[N+](=O)[O-])CC[C@@]3(O)[C@H]1C5` [Oxymorphone dinitrophenylhydrazone, 14-OH-dihydromorphinone-2,4-dinitrophenyl hydrazone], the entries for the “residual tritiated specific bonds of Naloxon” value in the data set with opiate receptors (setting [5]) and in the data set with opiate receptors (setting [6]) were 1±0.3% and 33±1%, respectively. In data set [2], the “Hot plate test ED₅₀” value worked out at 0.37 mg/kg.sc. The “Tail Flick ED₅₀” value in data set [3] is listed as 0.27 mg/kg.sc.

As for `CN1CC[C@]23c4c5ccc(O)c4O[C@H]2C(=NNC(N)=O)CC[C@@]3(O)[C@H]1C5` [Oxymorphone semicarbazone, 14-OH-dihydromarphinone semicarbazone], in data set [2], the “Hot plate test ED₅₀” value is 0.9 mg/kg.sc. The “Tail Flick ED₅₀” value in data set [3] turned out to be 0.9 mg/kg.sc.

As to `CN1CC[C@]23c4c5ccc(O)c4O[C@H]2C(=NNC(N)=S)CC[C@@]3(O)[C@H]1C5` [Oxymorphone thiosemicarbazone, 14-OH dihydromorphine thiosemicarbazone], the “residual tritiated specific bonds of Naloxon” value in the data set with opiate receptors (setting [5]) is reported as 0%; in the data set on opiate receptors (setting [6]), 37±9%.

As for `C=CCN1CCC23c4c5ccc(O)c4OC2C(=NNc2ccccc2)CCC3(O)C1C5` (stereo not shown) [naloxone phenylhydrazone], in data set [4], the membrane affinity result is on record as “much weaker membrane affinity than naloxone”.
